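Values below derive from 48-hour exposures of cells grown in 96-well plates, with endpoints linearly interpolated between the two concentrations bracketing the appropriate inhibition level. At the GI50, growth is halved.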 Active and inactive are the calls of the source. Rule as the data show it: active = GI50 up to about 1.1 µM and inactive = higher.

The values that follow come from ChEMBL document CHEMBL1201862, “PubChem BioAssay data set” (2004).

Among the test systems are 786-0; ACHN; BT-549; CCRF-CEM; HCT-116; HT-29; IGROV-1; Malme-3M; NCI-H460; NCI/ADR-RES; OVCAR-3; OVCAR-5; OVCAR-8; SK-OV-3; SN12C; SNB-75; SR; T47D; U-251; K562.
What all share (experiment): growth of human tumour cells (NCI), 48 h

Regarding `CSC1=C(SC)SC(=C2SC3=C(SC(=C4SCCS4)S3)S2)S1`, the GI50 in the assay with 786-0, with ACHN, with BT-549, in the assay on CCRF-CEM, in the assay on HCT-116 and in the assay with HT-29 was > 100 µM (inactive) throughout. The GI50 in the assay with IGROV-1, in the assay with Malme-3M, in the assay on NCI-H460, in the assay on NCI/ADR-RES, with OVCAR-3 and with OVCAR-5 was > 100 µM (inactive) throughout. The GI50 in the assay on OVCAR-8, in the assay with SK-OV-3, in the assay on SN12C, in the assay with SNB-75, with SR and in the assay with T47D was > 100 µM (inactive) in each case. In the assay with U-251, the GI50 was > 100 µM (inactive).
With `Oc1[nH]c(Nc2cccc(Cl)c2)nc2ncnc1-2`, the GI50 is > 100 µM (inactive) with 786-0; > 100 µM (inactive) with ACHN; > 100 µM (inactive) with BT-549; 71.4 µM (inactive) in the assay with CCRF-CEM; 62.4 µM (inactive) in the assay with HCT-116; 53.7 µM (inactive) with HT-29. For the same molecule, the GI50 with IGROV-1 was 80.4 µM (inactive); in the assay on K562, 86.5 µM (inactive); with Malme-3M, > 100 µM (inactive); in the assay with NCI-H460 it was > 100 µM (inactive); with NCI/ADR-RES it was > 100 µM (inactive); with OVCAR-3, 48.4 µM (inactive). Further, the GI50 in the assay on OVCAR-5 is > 100 µM (inactive); in the assay with OVCAR-8, > 100 µM (inactive); in the assay on SK-OV-3, > 100 µM (inactive); in the assay with SN12C, > 100 µM (inactive); in the assay on SNB-75, 30.5 µM (inactive); in the assay with SR, > 100 µM (inactive). Besides, the GI50 is 44.9 µM (inactive) in the assay on T47D and > 100 µM (inactive) in the assay on U-251.
On to `CC#Cc1cc2c(cc1O)CC[C@@H]1[C@@H]2CC[C@]2(C)[C@@H](O)CC[C@@H]12`, for which the GI50 in the assay with 786-0 is 1.58 µM (inactive); in the assay with ACHN, 6.17 µM (inactive); in the assay with BT-549 it was 11.9 µM (inactive); in the assay with CCRF-CEM, 0.684 µM (active); with HT-29 it was 13.8 µM (inactive); with IGROV-1 it was 4.54 µM (inactive). The GI50 is 0.344 µM (active) with K562; 0.582 µM (active) in the assay on Malme-3M; 0.475 µM (active) with NCI-H460; 0.885 µM (active) in the assay on NCI/ADR-RES; 17.9 µM (inactive) in the assay with OVCAR-5; 2.09 µM (inactive) with OVCAR-8. The GI50 in the assay with SK-OV-3 was 1.81 µM (inactive); in the assay on SN12C, 6.15 µM (inactive); with SNB-75, 1.4 µM (inactive); in the assay with SR it was 0.288 µM (active); in the assay on T47D, 3.15 µM (inactive); with U-251, 0.748 µM (active).
For `CC1CCCCCC(=O)c2c(O)cc(O)cc2CC(=O)O1` (stereo unspecified) [CURVULARIN], the GI50 in the assay with 786-0 was > 100 µM (inactive); with ACHN it was > 100 µM (inactive); with BT-549, 54.1 µM (inactive); with CCRF-CEM it was 74.3 µM (inactive); with HCT-116, > 100 µM (inactive); in the assay with HT-29 it was > 100 µM (inactive). In addition, the GI50 in the assay with IGROV-1 is > 100 µM (inactive); in the assay with K562, 41.6 µM (inactive); with Malme-3M it was > 100 µM (inactive); in the assay with NCI-H460, 98.2 µM (inactive); with NCI/ADR-RES it was > 100 µM (inactive); in the assay on OVCAR-3, 96.6 µM (inactive). Further, the GI50 was > 100 µM (inactive) with OVCAR-5; > 100 µM (inactive) in the assay with OVCAR-8; > 100 µM (inactive) in the assay with SK-OV-3; > 100 µM (inactive) in the assay on SN12C; 57.4 µM (inactive) with SNB-75; 44.5 µM (inactive) with SR. For the same molecule, the results for the GI50 with T47D and in the assay on U-251 were 59.2 µM (inactive) and > 100 µM (inactive), respectively.
As for `O=C(CC(Cl)=C(Cl)Cl)c1ccccc1`, the GI50 in the assay with 786-0 is 21.8 µM (inactive); in the assay on ACHN, 43.5 µM (inactive); in the assay on BT-549, 66.1 µM (inactive); in the assay on CCRF-CEM, 13.7 µM (inactive); in the assay with HCT-116, 21.3 µM (inactive); in the assay with HT-29 it was 31.6 µM (inactive). Besides, the GI50 was 80 µM (inactive) with IGROV-1; 21.5 µM (inactive) with K562; 31.8 µM (inactive) in the assay on Malme-3M; > 100 µM (inactive) in the assay with NCI-H460; 74.8 µM (inactive) in the assay on NCI/ADR-RES; 27 µM (inactive) with OVCAR-3. Moreover, the GI50 is 46 µM (inactive) in the assay with OVCAR-5; > 100 µM (inactive) in the assay with OVCAR-8; > 100 µM (inactive) in the assay with SK-OV-3; > 100 µM (inactive) with SNB-75; 21.4 µM (inactive) with SR; 34.7 µM (inactive) in the assay on T47D. The GI50 in the assay with U-251 is 57.1 µM (inactive).
`Cc1ccc(/C=C2\N=C(N3CCCC(CO)C3)NC2=O)cc1` (stereo unspecified): the GI50 with 786-0, in the assay with ACHN, in the assay with BT-549, in the assay on CCRF-CEM, in the assay on HCT-116 and in the assay on HT-29 was > 100 µM (inactive) in each case. The GI50 in the assay on IGROV-1, in the assay with K562, in the assay on Malme-3M, in the assay on NCI/ADR-RES, in the assay on OVCAR-3 and in the assay on OVCAR-5 was > 100 µM (inactive) each time. The GI50 with OVCAR-8, in the assay on SK-OV-3, in the assay on SN12C, in the assay with SNB-75, in the assay on SR and with T47D was > 100 µM (inactive) each time. In addition, the GI50 in the assay with U-251 is > 100 µM (inactive).
Turning to `N=C(/C=C/c1ccc(-c2cn3cc(/C=C/C(=N)N4CCCC4)ccc3n2)cc1)N1CCCC1`, the GI50 in the assay with 786-0 is 85.5 µM (inactive); in the assay with ACHN, 68.9 µM (inactive); in the assay on BT-549, > 100 µM (inactive); with HCT-116, 90.8 µM (inactive); with IGROV-1, > 100 µM (inactive); in the assay with K562, > 100 µM (inactive). Also, the GI50 in the assay on Malme-3M was 27 µM (inactive); with NCI-H460, 81.3 µM (inactive); in the assay on NCI/ADR-RES it was > 100 µM (inactive); in the assay on OVCAR-3, 60.1 µM (inactive); in the assay on OVCAR-5, > 100 µM (inactive); with OVCAR-8, 79.1 µM (inactive). For the same molecule, the GI50 with SK-OV-3 is > 100 µM (inactive); in the assay with SN12C, > 100 µM (inactive); in the assay with SNB-75, > 100 µM (inactive); with SR, > 100 µM (inactive); in the assay on T47D, > 100 µM (inactive); with U-251 it was 50.2 µM (inactive).
Regarding `COc1cc(CNC(=O)CCCCCCCCCCSC#N)ccc1O`, the GI50 in the assay on 786-0 was 17.8 µM (inactive); with ACHN, > 10 µM (inactive); with BT-549, 22.9 µM (inactive); in the assay with CCRF-CEM, 8.13 µM (inactive); in the assay with HCT-116, 14.9 µM (inactive); in the assay with HT-29, 31.9 µM (inactive). Besides, the GI50 is 4.59 µM (inactive) in the assay on IGROV-1; 6.9 µM (inactive) in the assay with K562; 32.7 µM (inactive) in the assay with Malme-3M; 13.3 µM (inactive) with NCI-H460; 17.1 µM (inactive) in the assay with NCI/ADR-RES; 13.1 µM (inactive) with OVCAR-3. In addition, the GI50 was 30.3 µM (inactive) in the assay with OVCAR-5; 18.5 µM (inactive) in the assay on OVCAR-8; 10.6 µM (inactive) in the assay with SK-OV-3; 11 µM (inactive) in the assay with SNB-75; 8.47 µM (inactive) in the assay on SR; 8.26 µM (inactive) in the assay with T47D. In addition, the GI50 with U-251 is 16.8 µM (inactive).
`C/C=C/COc1cc(NC(=S)c2ccoc2C)ccc1OC`: the GI50 in the assay with 786-0 was 75.3 µM (inactive); in the assay on BT-549, > 100 µM (inactive); in the assay with CCRF-CEM, > 100 µM (inactive); with HCT-116, > 100 µM (inactive); in the assay on HT-29, > 100 µM (inactive); in the assay with IGROV-1, 55.2 µM (inactive). The GI50 in the assay on Malme-3M is 89.1 µM (inactive); with NCI/ADR-RES, 39.4 µM (inactive); in the assay with OVCAR-3 it was 50.2 µM (inactive); in the assay on OVCAR-5, > 100 µM (inactive); in the assay with OVCAR-8, 57.9 µM (inactive); in the assay with SK-OV-3, 61.1 µM (inactive). The GI50 with SN12C is 62.1 µM (inactive); with SNB-75 it was 27.7 µM (inactive); with SR, > 100 µM (inactive); in the assay on T47D it was 43.3 µM (inactive); with U-251, 51.4 µM (inactive).
For `CN(Cc1cnc2nc(N)nc(N)c2n1)c1ccc(C(=O)NC(CCC(=O)NC(CC(P(=O)(O)O)P(=O)(O)O)C(=O)O)C(=O)O)cc1` (stereo unspecified), the GI50 with 786-0, in the assay with ACHN, in the assay on BT-549, in the assay on HCT-116, in the assay on HT-29 and in the assay on IGROV-1 was > 100 µM (inactive) throughout. Moreover, the GI50 in the assay with Malme-3M, with NCI-H460, in the assay on NCI/ADR-RES, with OVCAR-3, in the assay with OVCAR-5 and with OVCAR-8 was > 100 µM (inactive) each time. In addition, the GI50 in the assay with SK-OV-3, in the assay with SN12C, with SNB-75, with SR, with T47D and in the assay on U-251 was > 100 µM (inactive) each time.
As to `Nc1nc(NCC2(CO)CCC2)cc(=O)[nH]1`, the GI50 in the assay on 786-0, in the assay on BT-549, with CCRF-CEM, in the assay with HCT-116, in the assay on HT-29 and with IGROV-1 was > 100 µM (inactive) in each case. For the same molecule, the GI50 in the assay on K562, in the assay with Malme-3M, in the assay with NCI-H460, in the assay on NCI/ADR-RES, with OVCAR-3 and with OVCAR-5 was > 100 µM (inactive) in each case. Moreover, the GI50 in the assay with OVCAR-8, in the assay with SK-OV-3, in the assay with SN12C, in the assay with SNB-75, in the assay with SR and with T47D was > 100 µM (inactive) in each case. The GI50 in the assay on U-251 is > 100 µM (inactive).
